Test results from US6465655B1, “Antibody to and assay for peptide linked-pyridinoline as indicator of bone resorption level” (Serex, Inc., priority 1997, dated 2002).

System: Serex 51A93
Assay: ELISA plate inhibition studies of Serex 51A93 by calibrators (Osteomark BCE, Metra free pyridinoline)
Type: binding
Protocol: The immunoreactivities of 51A93 and 1H11 with the calibrators and ELISA plates in the Osteomark kit and Pyrilinks Metra kit were compared. Two studies were carried out using ELISA plate assays.
In the first study, BCE calibrators from the Osteomark Kit and free pyridinoline (Pyd) from Metra were tested at different concentrations to see if either of them inhibits 51A93. Abbreviations are BCE, bone collagen equivalents; %Bo, percent bound at 0 concentration of analyte (as analyte in sample binds to antibody, the percent Bo decreases).

## N[C@@H](CC[C@@H](O)C[n+]1cc(O)c(C[C@H](N)C(=O)O)c(CC[C@H](N)C(=O)O)c1)C(=O)[O-] [Pyd, pyridinoline]
Pyd 0.001 mg/ml
  % B0: 87%
  A 450: 1,302
Pyd 0.01 mg/ml
  % B0: 85%
  A 450: 1,275
Pyd 0.1 mg/ml
  % B0: 89%
  A 450: 1,327
Pyd 1 mg/ml
  % B0: 83%
  A 450: 1,249
Even at high levels
  inhibition of Mab 51A93 by calibrator: slightly inhibited
